Measurements as given in the supplement of paper PMC8253809.

Experiments:
DIPGX37 [1] = H3.3 K27M diffuse intrinsic pontine glioma line; assay: EC50 (inflection of fitted growth-inhibition curve) (log10 M)
Procedure, shortened: (§1)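 Viability readout was CellTiter-Glo luminescence, log2-transformed, normalised per plate to % activity between negative (solvent) and positive control wells, then pooled. This followed a 7-day exposure (3 days for iAstro) at 37 °C, 5% CO2 to a 10-point threefold dilution series (mean top concentration 35 μM), pin-tool delivered in triplicate to patient-derived pHGG/DIPG cell lines and astrocyte controls on 1% Geltrex-coated 384-well plates. Three- and four-parameter log-logistic fits were compared, and the one with the lowest AICc supplied EC50 and maximal response (yFin).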

DIPGX7 [2] = H3.3 K27M diffuse intrinsic pontine glioma line; assay: as above
Procedure, shortened: as §1

SUDIPGXXI [3] = diffuse intrinsic pontine glioma line; assay: as above
Procedure, shortened: as §1

DIPGX9 [4] = diffuse intrinsic pontine glioma line; assay: as above
Procedure, shortened: as §1

DIPGX29 [5] = H3.3 K27M diffuse intrinsic pontine glioma line; assay: as above
Procedure, shortened: as §1

SUDIPGXIX [6] = diffuse intrinsic pontine glioma line; assay: as above
Procedure, shortened: as §1

HGGX39 [7] = paediatric high-grade glioma line; assay: as above
Procedure, shortened: as §1

SUDIPGIV [8] = diffuse intrinsic pontine glioma line; assay: as above
Procedure, shortened: as §1

HGGX42 [9] = H3.3 G34R paediatric high-grade glioma line; assay: as above
Procedure, shortened: as §1

SUDIPGXIII [10] = diffuse intrinsic pontine glioma line; assay: as above
Procedure, shortened: as §1

DIPGX37 [11] = assay: area under dose-response curve of % growth inhibition (log2 RLU vs DMSO / staurosporine), 1e-11 to 1e-4 M (% x log10 M); higher = more growth inhibition
Procedure, shortened: (§2)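 Patient-derived pHGG/DIPG cell lines and astrocytes, cultured on 384-well plates with a 1% Geltrex coating, were given a 10-point threefold dilution series (mean top concentration 35 μM) in triplicate for 7 days (iAstro 3 days) at 37 °C, 5% CO2. CellTiter-Glo signal, log2-transformed and normalised per plate to % activity against solvent and positive controls, was fitted with a log-logistic curve or, where the sigmoid fit failed, a smoothing spline. Area under the curve was then computed by the trapezoid rule.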

DIPGX7 [12] = assay: as above
Procedure, shortened: as §2

SUDIPGXXI [13] = assay: as above
Procedure, shortened: as §2

HGGX6 [14] = H3.3 G34R paediatric high-grade glioma line; assay: as above
Procedure, shortened: as §2

SUDIPGVI [15] = diffuse intrinsic pontine glioma line; assay: as above
Procedure, shortened: as §2

DIPGX9 [16] = assay: as above
Procedure, shortened: as §2

HGGX2 [17] = paediatric high-grade glioma line; assay: as above
Procedure, shortened: as §2

DIPGX29 [18] = assay: as above
Procedure, shortened: as §2

SUDIPGXVII [19] = diffuse intrinsic pontine glioma line; assay: as above
Procedure, shortened: as §2

SUDIPGXIX [20] = assay: as above
Procedure, shortened: as §2

HGGX39 [21] = assay: as above
Procedure, shortened: as §2

SUDIPGIV [22] = assay: as above
Procedure, shortened: as §2

HGGX42 [23] = assay: as above
Procedure, shortened: as §2

SUDIPGXIII [24] = assay: as above
Procedure, shortened: as §2

HABS [25] = astrocyte control; assay: as above
Procedure, shortened: as §2

iAstro [26] = astrocyte control; assay: as above
Procedure, shortened: as §2

DIPGX37 [27] = assay: maximal growth inhibition (yFin) relative to DMSO / staurosporine; higher = more efficacious
Procedure, shortened: as §1

DIPGX7 [28] = assay: as above
Procedure, shortened: as §1

SUDIPGXXI [29] = assay: as above
Procedure, shortened: as §1

DIPGX9 [30] = assay: as above
Procedure, shortened: as §1

DIPGX29 [31] = assay: as above
Procedure, shortened: as §1

SUDIPGXIX [32] = assay: as above
Procedure, shortened: as §1

HGGX39 [33] = assay: as above
Procedure, shortened: as §1

SUDIPGIV [34] = assay: as above
Procedure, shortened: as §1

HGGX42 [35] = assay: as above
Procedure, shortened: as §1

SUDIPGXIII [36] = assay: as above
Procedure, shortened: as §1

HGGX6 [37] = assay: EC50 (inflection of fitted growth-inhibition curve) (log10 M)
Procedure, shortened: as §1

SUDIPGVI [38] = assay: as above
Procedure, shortened: as §1

SUDIPGXVII [39] = assay: as above
Procedure, shortened: as §1

HGGX6 [40] = assay: maximal growth inhibition (yFin) relative to DMSO / staurosporine; higher = more efficacious
Procedure, shortened: as §1

SUDIPGVI [41] = assay: as above
Procedure, shortened: as §1

SUDIPGXVII [42] = assay: as above
Procedure, shortened: as §1

HGGX2 [43] = assay: EC50 (inflection of fitted growth-inhibition curve) (log10 M)
Procedure, shortened: as §1

HABS [44] = assay: as above
Procedure, shortened: as §1

iAstro [45] = assay: as above
Procedure, shortened: as §1

HGGX2 [46] = assay: maximal growth inhibition (yFin) relative to DMSO / staurosporine; higher = more efficacious
Procedure, shortened: as §1

HABS [47] = assay: as above
Procedure, shortened: as §1

iAstro [48] = assay: as above
Procedure, shortened: as §1

## Cn1cnc([N+](=O)[O-])c1Sc1ncnc2[nH]cnc12 [AZATHIOPRINE]
DIPGX37 [1]
  EC50 (log10 M): -5.6
DIPGX7 [2]
  EC50 (log10 M): -5.08
SUDIPGXXI [3]
  EC50 (log10 M): -6.73
DIPGX9 [4]
  EC50 (log10 M): -5.87
DIPGX29 [5]
  EC50 (log10 M): -6.11
SUDIPGXIX [6]
  EC50 (log10 M): -6.06
HGGX39 [7]
  EC50 (log10 M): -5.65
SUDIPGIV [8]
  EC50 (log10 M): -5.75
HGGX42 [9]
  EC50 (log10 M): -6.39
SUDIPGXIII [10]
  EC50 (log10 M): -6.03
DIPGX37 [11]
  area under dose-response curve: 87.5
DIPGX7 [12]
  area under dose-response curve: 35.7
SUDIPGXXI [13]
  area under dose-response curve: 119
HGGX6 [14]
  area under dose-response curve: 50.7
SUDIPGVI [15]
  area under dose-response curve: 29
DIPGX9 [16]
  area under dose-response curve: 52.8
HGGX2 [17]
  area under dose-response curve: 49.3
DIPGX29 [18]
  area under dose-response curve: 119
SUDIPGXVII [19]
  area under dose-response curve: 37.4
SUDIPGXIX [20]
  area under dose-response curve: 42.2
HGGX39 [21]
  area under dose-response curve: 80.7
SUDIPGIV [22]
  area under dose-response curve: 60
HGGX42 [23]
  area under dose-response curve: 51
SUDIPGXIII [24]
  area under dose-response curve: 38.7
HABS [25]
  area under dose-response curve: 15.3
iAstro [26]
  area under dose-response curve: 6.8
DIPGX37 [27]
  maximal growth inhibition: 53.7%
DIPGX7 [28]
  maximal growth inhibition: 32.3%
SUDIPGXXI [29]
  maximal growth inhibition: 43.4%
DIPGX9 [30]
  maximal growth inhibition: 27.4%
DIPGX29 [31]
  maximal growth inhibition: 55.9%
SUDIPGXIX [32]
  maximal growth inhibition: 25.4%
HGGX39 [33]
  maximal growth inhibition: 52.1%
SUDIPGIV [34]
  maximal growth inhibition: 34%
HGGX42 [35]
  maximal growth inhibition: 23.2%
SUDIPGXIII [36]
  maximal growth inhibition: 21%

## CC(C)C[C@H](NC(=O)[C@H](Cc1ccccc1)NC(=O)c1cnccn1)B(O)O [BORTEZOMIB]
HGGX6 [37]
  EC50 (log10 M): -7.84
SUDIPGVI [38]
  EC50 (log10 M): -9.92
SUDIPGXVII [39]
  EC50 (log10 M): -8.34
SUDIPGXIII [10]
  EC50 (log10 M): -9.99
DIPGX37 [11]
  area under dose-response curve: 493
DIPGX7 [12]
  area under dose-response curve: 575
SUDIPGXXI [13]
  area under dose-response curve: 634
HGGX6 [14]
  area under dose-response curve: 347
SUDIPGVI [15]
  area under dose-response curve: 499
DIPGX9 [16]
  area under dose-response curve: 571
HGGX2 [17]
  area under dose-response curve: 450
DIPGX29 [18]
  area under dose-response curve: 287
SUDIPGXVII [19]
  area under dose-response curve: 392
SUDIPGXIX [20]
  area under dose-response curve: 568
HGGX39 [21]
  area under dose-response curve: 455
SUDIPGIV [22]
  area under dose-response curve: 581
HGGX42 [23]
  area under dose-response curve: 312
SUDIPGXIII [24]
  area under dose-response curve: 491
HABS [25]
  area under dose-response curve: 506
iAstro [26]
  area under dose-response curve: 461
HGGX6 [40]
  maximal growth inhibition: 91.4%
SUDIPGVI [41]
  maximal growth inhibition: 95.6%
SUDIPGXVII [42]
  maximal growth inhibition: 91.2%
SUDIPGXIII [36]
  maximal growth inhibition: 96.5%

## CS[C@H]1SC[C@H]2C(=O)N(C)[C@@H](C(C)C)C(=O)OC[C@@H](NC(=O)c3cnc4ccccc4n3)C(=O)N[C@@H](C)C(=O)N(C)[C@@H]1C(=O)N(C)[C@@H](C(C)C)C(=O)OC[C@@H](NC(=O)c1cnc3ccccc3n1)C(=O)N[C@@H](C)C(=O)N2C [ECHINOMYCIN]
HGGX6 [37]
  EC50 (log10 M): -8.49
SUDIPGVI [38]
  EC50 (log10 M): -10.8
SUDIPGXVII [39]
  EC50 (log10 M): -8.81
HGGX42 [9]
  EC50 (log10 M): < -11
SUDIPGXIII [10]
  EC50 (log10 M): -8.75
DIPGX37 [11]
  area under dose-response curve: 508
DIPGX7 [12]
  area under dose-response curve: 488
SUDIPGXXI [13]
  area under dose-response curve: 577
HGGX6 [14]
  area under dose-response curve: 337
SUDIPGVI [15]
  area under dose-response curve: 399
DIPGX9 [16]
  area under dose-response curve: 510
HGGX2 [17]
  area under dose-response curve: 383
DIPGX29 [18]
  area under dose-response curve: 489
SUDIPGXVII [19]
  area under dose-response curve: 425
SUDIPGXIX [20]
  area under dose-response curve: 520
HGGX39 [21]
  area under dose-response curve: 507
SUDIPGIV [22]
  area under dose-response curve: 505
HGGX42 [23]
  area under dose-response curve: 432
SUDIPGXIII [24]
  area under dose-response curve: 335
HABS [25]
  area under dose-response curve: 371
iAstro [26]
  area under dose-response curve: 139
HGGX6 [40]
  maximal growth inhibition: 75.4%
SUDIPGVI [41]
  maximal growth inhibition: 71%
SUDIPGXVII [42]
  maximal growth inhibition: 96.4%
HGGX42 [35]
  maximal growth inhibition: 76.3%
SUDIPGXIII [36]
  maximal growth inhibition: 70.4%

## CO[C@H]1C[C@@H]2CC[C@@H](C)[C@@](O)(O2)C(=O)C(=O)N2CCCC[C@H]2C(=O)O[C@H]([C@H](C)C[C@@H]2CC[C@@H](OCCO)[C@H](OC)C2)CC(=O)[C@H](C)/C=C(\C)[C@@H](O)[C@@H](OC)C(=O)[C@H](C)C[C@H](C)/C=C/C=C/C=C/1C [EVEROLIMUS]
DIPGX37 [1]
  EC50 (log10 M): -4.6
DIPGX7 [2]
  EC50 (log10 M): -4.76
HGGX6 [37]
  EC50 (log10 M): -4.78
HGGX2 [43]
  EC50 (log10 M): -4.67
DIPGX29 [5]
  EC50 (log10 M): -4.57
SUDIPGXVII [39]
  EC50 (log10 M): -4.83
SUDIPGXIX [6]
  EC50 (log10 M): -4.79
HGGX39 [7]
  EC50 (log10 M): -4.56
SUDIPGIV [8]
  EC50 (log10 M): -4.85
HGGX42 [9]
  EC50 (log10 M): -4.78
SUDIPGXIII [10]
  EC50 (log10 M): -4.77
HABS [44]
  EC50 (log10 M): -4.63
iAstro [45]
  EC50 (log10 M): -4.83
DIPGX37 [11]
  area under dose-response curve: 103
DIPGX7 [12]
  area under dose-response curve: 75.4
SUDIPGXXI [13]
  area under dose-response curve: 203
HGGX6 [14]
  area under dose-response curve: 62.9
SUDIPGVI [15]
  area under dose-response curve: 113
DIPGX9 [16]
  area under dose-response curve: 149
HGGX2 [17]
  area under dose-response curve: 78.5
DIPGX29 [18]
  area under dose-response curve: 95.9
SUDIPGXVII [19]
  area under dose-response curve: 74.4
SUDIPGXIX [20]
  area under dose-response curve: 72
HGGX39 [21]
  area under dose-response curve: 99.1
SUDIPGIV [22]
  area under dose-response curve: 97.4
HGGX42 [23]
  area under dose-response curve: 107
SUDIPGXIII [24]
  area under dose-response curve: 92.4
HABS [25]
  area under dose-response curve: 54.8
iAstro [26]
  area under dose-response curve: 96.6
DIPGX37 [27]
  maximal growth inhibition: 100%
DIPGX7 [28]
  maximal growth inhibition: 98.8%
HGGX6 [40]
  maximal growth inhibition: 50%
HGGX2 [46]
  maximal growth inhibition: 94.8%
DIPGX29 [31]
  maximal growth inhibition: 107%
SUDIPGXVII [42]
  maximal growth inhibition: 73.8%
SUDIPGXIX [32]
  maximal growth inhibition: 90.9%
HGGX39 [33]
  maximal growth inhibition: 97.2%
SUDIPGIV [34]
  maximal growth inhibition: 87.7%
HGGX42 [35]
  maximal growth inhibition: 95.7%
SUDIPGXIII [36]
  maximal growth inhibition: 85.2%
HABS [47]
  maximal growth inhibition: 86.6%
iAstro [48]
  maximal growth inhibition: 85%
